The supplement of paper PMC10307832

Key:
Assay in all cases: relative viability (nuclei count vs DMSO), 5 days (fraction); higher = more cells survive
[1] = compound: CC(C)CCN1c2nc(Nc3cc(F)c(O)c(F)c3)ncc2N(C)C(=O)C1C [BI-D1870] + COc1cc2c(Oc3ccc(NC(=O)C4(C(=O)Nc5ccc(F)cc5)CC4)cc3F)ccnc2cc1OCCCN1CCOCC1 [Foretinib] (partner 0.25 µM)
Procedure, shortened: (§1)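 Relative viability is defined as nuclei in treated wells over nuclei in vehicle wells. Duplicate plates were run and medians reported. Lung cancer cell lines in 1536-well plates were dosed by pin tool one day after seeding, with one drug or with a fixed anchor-drug dose plus five library-drug doses (not always all listed) in √10 steps, and nuclei were counted after 5 days.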

[2] = compound: CC(C)CCN1c2nc(Nc3cc(F)c(O)c(F)c3)ncc2N(C)C(=O)C1C [BI-D1870] + CS(=O)(=O)CCNCc1ccc(-c2ccc3ncnc(Nc4ccc(OCc5cccc(F)c5)c(Cl)c4)c3c2)o1 [Lapatinib] (partner 2 µM)
Procedure, shortened: as §1

[3] = compound: O=c1ncccn1[C@@H]1O[C@H](CO)[C@@H](O)[C@H]1O [Zebularine] + COc1cccc2cc(-c3nc([C@H]4CC[C@H](C(=O)O)CC4)n4ncnc(N)c34)[nH]c12 [OSI-027] (partner 0.5 µM)
Procedure, shortened: as §1

[4] = compound: O=c1ncccn1[C@@H]1O[C@H](CO)[C@@H](O)[C@H]1O [Zebularine] + NC(=O)Nc1cc(-c2cccc(F)c2)sc1C(=O)N[C@H]1CCCNC1 [AZD7762] (partner 0.2 µM)
Procedure, shortened: as §1

Cell Line | relative viability ([1]; first compound 0.04 µM) | relative viability ([1]; first compound 0.1265 µM) | relative viability ([1]; first compound 0.4 µM) | relative viability ([1]; first compound 1.265 µM) | relative viability ([1]; first compound 4 µM) | relative viability ([2]; first compound 0.04 µM) | relative viability ([2]; first compound 0.1265 µM) | relative viability ([2]; first compound 0.4 µM) | relative viability ([2]; first compound 1.265 µM) | relative viability ([2]; first compound 4 µM) | relative viability ([3]; first compound 1 µM) | relative viability ([3]; first compound 3.162 µM) | relative viability ([3]; first compound 10 µM) | relative viability ([3]; first compound 31.62 µM) | relative viability ([3]; first compound 100 µM) | relative viability ([4]; first compound 1 µM) | relative viability ([4]; first compound 10 µM) | relative viability ([4]; first compound 31.62 µM) | relative viability ([4]; first compound 100 µM) | relative viability ([4]; first compound 3.162 µM)
EPLC-272H | 0.786 | 0.539 | 0.602 | 0.612 | 0.508 | 0.878 | 0.879 | 0.734 | 1.01 | 0.852 | 0.279 | 0.213 | 0.312 | 0.324 | 0.27 | 0.171 | 0.183 | 0.192 | 0.24 | 
H3255 | 0.784 | 0.915 | 0.953 | 1.09 | 0.849 | 0.221 | 0.266 | 0.258 | 0.296 | 0.244 | 0.605 | 0.522 | 0.43 | 0.689 | 0.487 | 1.08 | 0.744 | 0.995 | 0.904 | 0.909
HARA | 0.872 | 0.855 | 0.867 | 0.819 | 1.02 | 0.973 | 0.722 | 0.842 | 0.998 | 0.74 | 0.367 |  |  | 0.42 | 0.245 | 0.417 | 0.303 | 0.371 | 0.336 | 0.31
HCC-15 | 1.11 | 0.911 | 1 | 0.921 | 0.599 | 0.94 | 0.832 | 0.774 | 0.795 | 0.592 | 0.85 | 0.587 | 0.457 | 0.537 | 0.27 | 1.24 | 0.883 | 1.17 | 0.984 | 1.41
HCC-78 | 0.599 | 0.522 | 0.529 | 0.592 | 0.481 | 0.827 | 0.597 | 0.715 | 1.13 | 0.856 | 0.394 | 0.381 | 0.305 | 0.366 | 0.401 | 0.716 |  | 0.648 | 0.468 | 0.743
HCC-366 | 0.957 | 0.906 | 0.932 | 0.896 | 0.943 | 1.09 | 1.01 | 1 | 1.21 | 0.389 | 1.02 | 0.831 | 0.558 | 0.807 | 0.253 | 0.336 | 0.219 | 0.463 | 0.162 | 0.264
HCC-827 | 1.05 | 0.968 | 0.967 | 1.06 | 1.03 | 0.224 | 0.179 | 0.194 | 0.172 | 0.231 | 1.06 | 0.779 | 0.675 | 0.609 | 0.366 | 0.221 | 0.197 | 0.197 | 0.179 | 0.206
HOP-62 | 1.27 | 1.03 | 1.07 | 1.06 | 0.924 | 1.07 | 1.08 | 0.934 | 1.06 | 0.825 | 0.945 | 0.745 | 0.493 | 0.465 | 0.319 | 0.649 | 0.303 | 0.307 | 0.247 | 0.658
